# According to a melting point compilation (Tetko et al.; mined from patent text by program, amines drawn as free bases though some values may be those of a salt):
row,Compound,melting point
1,CC1CC(c2cc3cccc(F)c3s2)CCN1 (centres undefined),45 to 47 °C
2,CC1CCCC(Cl)(Cl)C(=O)N1 (centres undefined),132 to 134 °C
3,COc1cc2c(cc1OC)-c1c(-c3nc(-c4ccccc4)no3)c(-c3cc(C)c(O)c(C)c3)c(C)n1CC2,191 to 193 °C
4,COc1ccc(N(C)c2nccc(-c3cccnc3)n2)cc1,88 to 90 °C
5,CCNC(=O)C(C)(Cc1cc2ccccc2s1)C(N)=O (centres undefined),141 to 143 °C
6,CCCc1nc(NC)sc1-c1ccncc1,150 to 151 °C
7,COC(=O)c1ccc(Cc2cn(C(C)C)c3ccc(C=C(C)C(=O)O)cc23)c(OC)c1,143 to 145 °C
8,CS(=O)(=O)c1ccc(N2CCc3[nH]c4c(cnc5cc(Cl)ccc54)c3C2)cc1,> 250 °C
9,COCCOc1ccc(CCC(=O)N(CCOC)S(N)(=O)=O)c(Oc2ncc(C(F)(F)F)cc2Cl)c1,101 °C
10,Nc1sc2c(c1C(=O)c1ccccc1)CCN(CCc1ccc([N+](=O)[O-])cc1)C2,89 to 91 °C
11,CCOC(=O)Cc1nc(-c2ccccc2)oc1-c1ccsc1,90 to 91 °C
12,CCOC(=O)C(=CC(C)c1ccc(Br)cc1)CC(=O)O (centres undefined),107 °C
13,COC12CC(CNC(=S)NC(C)=O)CN(C)C1Cc1c[nH]c3cccc2c13 (centres undefined),212 to 214 °C
14,O=C(Nc1nccs1)c1nc(-c2ccc([N+](=O)[O-])cc2)[nH]c1-c1ccc(CO)cc1,249 to 252 °C
15,CCOC(=O)c1c(N2CCC(N(C)C)CC2)c2cc(C)ccc2n(Cc2ccccc2)c1=O,> 60 °C
16,CC(C)Oc1cccc(Nc2cc(-c3c[nH]nc3-c3ccccn3)ccn2)c1,218 °C
17,CC(=O)NC[C@H]1CN(c2cc(F)c(N3CCN(C(=O)COCc4ccccc4)CC3)c(F)c2)C(=O)O1,172 to 173 °C
18,O=C1CCCc2sc(CCN3CCC(c4coc5cc(F)ccc45)CC3)cc2N1,176 to 178 °C
19,CCCCc1oc2ccccc2c1C(=O)Nc1ccc2cc(OCc3nn[nH]n3)ccc2c1,194 to 198 °C
20,CCCCCCCCCCCCCCOC(=O)NO,64 to 66 °C
21,Cc1cc(OCC(F)(F)F)c(NC(=O)CN2CCN(CCO)CC2)c(OCC(F)(F)F)n1,117 to 118 °C
22,COC(=O)C1=C(C)NC(C)=C(C(=O)OCCCOc2ccc(CCOC3CCCCO3)cc2)C1c1cccc([N+](=O)[O-])c1 (centres undefined),< 50 °C
23,CSc1sc(-c2ccno2)c2c1C(=O)CC(C)(C)C2,143 to 145 °C
24,CCOc1ccc2c(c1)n(C1CCCCC1)c(=O)n2S(=O)(=O)c1ccc(C(=O)NC(C)(C)CN(C)C)cc1OC,161 °C
25,C#Cc1c2c3c(cccc3n1C)C1CC(NC(=O)N(CC)CC)CN(C)C1C2 (centres undefined),126 °C
26,CC(C)[C@H](NC(=O)c1ccccc1)C(=O)NCC(=O)N[C@@H](CCCNC(=N)N)C(=O)Nc1ccc2ncccc2c1,167 to 169 °C

# Second part, the molecule after the results:
row,melting point,Compound
1,99 °C,CC(C)(C)OC(=O)N[C@@H](Cc1cc(F)cc(F)c1)[C@H]1CO1
2,190 to 191 °C,CS(=O)(=O)c1ccccc1C1CCCC2(C1)C(=O)Nc1ccccc12 (centres undefined)
3,52 to 58 °C,Cc1cc(C)c(Nc2nc(N(C)C)ncc2S(=O)(=O)c2cccc(OCc3ccccc3)c2)c(C)c1
4,170 to 172 °C,CC(=O)Nc1ccc(C#N)cc1F
5,228 to 229 °C,CC(=O)NC(Cc1ccccc1)C(=O)Nc1c(C(C)C)cccc1C(C)C (centres undefined)
6,241 to 245 °C,CC(C)(O)c1ccc2c(c1)SC(c1ccccc1)C(c1ccc3c(c1)NC(=O)CO3)=C2 (centres undefined)
7,114 to 121 °C,CCN(CC)CCCOc1cccc(-c2oc3ccccc3c2C(=O)c2cc(C)cc(C)c2)c1
8,193 to 195 °C,O=C(Nc1cn2nc(Sc3nnc4ccccn34)ccc2n1)C1CC1
9,210 to 211 °C,CCOC(=O)Nc1cn2nc(OCc3cc(OC)ccc3OC)ccc2n1
10,170 to 171 °C,Cc1c(NC(=O)CCCC(=O)c2ccc(F)cc2)ccc2cc(CN3CCCC3)cnc12
11,> 280 °C,CC(=O)NC1C2CC(=O)CC1C(N)=C(O)C2=O (centres undefined)
12,255 °C,Oc1nc(-c2ccc(Cl)cc2)nc2c1CCCC2
13,144 to 145 °C,CCOC(=O)CNC(=O)Cn1c(-c2cccc(Cl)c2)nc2cccnc21
14,83 to 85 °C,CCCCCCCCCCCCCCCCCCNS(=O)(=O)c1cccc(C(F)(F)F)c1
15,166 to 167 °C,CC(C)(C)c1ccc2c(c1)OC(C(F)(F)F)C(C(=O)O)=C2 (centres undefined)
16,173 to 174 °C,O=C(Nc1ccc(O)cc1)C1CCCCC12OCCO2 (centres undefined)
17,153 to 155 °C,COc1ccc(C(=O)Nc2c(Cl)cncc2Cl)cc1OC1CCCC1
18,188 to 191 °C,CC(=O)n1nc(-c2c(C)cc(C)c([N+](=O)[O-])c2C)n2nc(C(C)(C)C)c(Cl)c12
19,234 to 238 °C,Oc1ccc(Sc2cccc(O)n2)cc1
20,42 to 45 °C,O=C(O)CC1(CS)CC1
21,131 to 132 °C,COc1ccc(S(=O)(=O)Nc2ccccc2C=Cc2cccnc2)cc1
22,124 to 126 °C,COC(=O)C(=O)NC1CC(C)(C)N(OC2CCCCC2)C(C)(C)C1
23,95 to 96.5 °C,CC12CC3C(=O)OC(C1O)C3(C)O2 (centres undefined)
